According to PMC4226252, “Biochemical interaction of anti-HCV telaprevir with the ABC transporters P-glycoprotein and breast cancer resistance protein” (BMC Research Notes, 2013):
Values joined by “and” are separate entries in the source; they are usually repeats but may differ in a detail not shown here. Equal values may be shown once. Read-outs that look alike come from different tables or passages of the source. Values belong to the compound of their own block, whether it stands above or below them.

Experiments:
[1] = tested on: OATP1B1; conditions: cited from earlier work
[2] = molecular target: T1, BCRP (Homo sapiens, UniProt Q9UNQ0); test: biochemical; conditions: for IC50: IC50 of telaprevir on BCRP-mediated transport; for Ki: Lineweaver-Burk plot, 50 μmol/L telaprevir
T1 sequence (Q9UNQ0 1-655): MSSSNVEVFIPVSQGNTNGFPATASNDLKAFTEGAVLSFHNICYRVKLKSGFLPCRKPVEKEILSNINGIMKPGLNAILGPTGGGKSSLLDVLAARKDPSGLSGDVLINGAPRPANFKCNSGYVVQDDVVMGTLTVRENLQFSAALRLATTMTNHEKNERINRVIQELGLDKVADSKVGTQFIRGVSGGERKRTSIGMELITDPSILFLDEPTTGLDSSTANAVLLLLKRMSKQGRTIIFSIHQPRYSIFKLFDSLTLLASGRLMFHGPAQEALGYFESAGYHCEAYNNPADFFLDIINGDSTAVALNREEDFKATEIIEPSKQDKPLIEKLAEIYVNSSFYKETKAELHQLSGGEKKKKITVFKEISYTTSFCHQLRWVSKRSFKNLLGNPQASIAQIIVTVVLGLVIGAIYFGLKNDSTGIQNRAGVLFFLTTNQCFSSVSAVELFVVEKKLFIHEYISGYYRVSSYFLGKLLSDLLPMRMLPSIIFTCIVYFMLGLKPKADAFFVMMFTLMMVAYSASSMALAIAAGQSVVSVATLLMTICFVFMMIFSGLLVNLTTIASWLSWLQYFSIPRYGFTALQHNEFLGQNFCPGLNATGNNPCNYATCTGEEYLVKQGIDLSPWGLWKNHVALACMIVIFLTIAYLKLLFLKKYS
Protocol: (§3) Then, they were mixed with [^3H]-labeled VCR (for P-gp) or E1S or MTX (for BCRP), and telaprevir at the indicated concentration in the reaction buffer (0.25 mol/L sucrose, 10 mmol/L HEPES-NaOH (pH 7.4), 10 mmol/L MgCl2, 10 mmol/L phosphocreatine, 100 μg/mL creatine phosphokinase, with or without 3 mmol/L adenosine triphosphate (ATP)) in a total volume of 50 μL. After 10 min of incubation at 25°C, the reaction mixture was stopped by the addition of ice-cold stop solution (0.25 mol/L sucrose, 10 mmol/L HEPES-NaOH (pH 7.4), 0.1 mol/L NaCl) and centrifuged at 18,000 × g for 10 min at 4°C. The pellets were solubilized by a liquid scintillation counter to measure their radioactivity levels. For kinetics analyses, the Michaelis–Menten equation and Lineweaver–Burk plots were applied to visualize the mechanism of transport inhibition, as v = Vmax[S]/([S] + (1 + [I]/Ki)Km), where [S] and [I] are concentrations of substrate and inhibitor respectively, and v is velocity of substrate uptake by transporter.
(§4) A. The ability to transport E1S at telaprevir-absent or -present conditions was determined by measuring the radioactivity of [^3H]-E1S taken up in membrane vesicles. A similar experiment was done for MTX. […] E1S concentration was 50 nmol/L (A) and 50, 100, and 200 nmol/L (B), and of telaprevir was 0, 1, 10, and 100 μmol/L (A) and 50 μmol/L (B), respectively. MTX concentration was 100 nmol/L (A), and 100, 200 and 400 nmol/L (B). Membrane vesicles of K562/BCRP cells were used.

[3] = molecular target: T2, P-gp (Homo sapiens, UniProt P08183); test: Photoaffinity labeling of P-gp with [125I]-IAAP; type: binding; design: expressed in transfected cells; host or cells: K562/MDR cells (plasma membrane vesicles); conditions: for P-gp band intensity (% of no-inhibitor): human, 10 min, pH 7.4
Protocol: (§1) Photoaffinity labeling assay was done as described previously. In brief, plasma membrane fractions (45 μg protein/sample) were pre-incubated at 4°C for 5 min at the indicated concentration of telaprevir in 0.25 mol/L sucrose solution containing 10 mmol/L HEPES-NaOH (pH 7.4). Then, 5 nmol/L radioactive iodine-labeled IAAP, i.e., [^125I]-IAAP (2200 Ci/mmol), was added and the mixture incubated for an additional 10 min. Samples were kept on ice and illuminated with an ultraviolet lamp (B-100AP; UVP, Upland, CA, USA) at 365 nm for 30 min. These processes were carried out on ice. For the BCRP assay, the labeled BCRP protein was solubilized in a buffer (1% NP-40, 20 mmol/L Tris–HCl (pH 7.4), 150 mmol/L NaCl, 1 mmol/L ethylenediamine tetra-acetic acid (EDTA)) and immunoprecipitated with anti-BCRP antibody BXP-21 (Millipore, Billerica, MA, USA), then solubilized by Laemmli sodium dodecyl sulfate (SDS) buffer. For the P-gp assay, membrane fractions were solubilized directly by Laemmli SDS buffer. Samples were separated by sodium dodecyl sulfate-polyacrylamide gel electrophoresis (SDS-PAGE), and gels were dried. The binding of [^125I]-IAAP with P-gp and BCRP was quantified using a FLA7000 Bioimage Analyzer (Fuji Film, Tokyo, Japan) and Multi-Gauge software (Fuji Film).
(§2) Figure 3 Effect of telaprevir on photoaffinity labeling of P-gp and BCRP with [^125I]-IAAP. K562/MDR- or K562/BCRP-vesicles were mixed with the indicated concentrations of telaprevir for 5 min. Vesicles were pre-incubated with 5 nmol/L [^125I]-IAAP (2200 Ci/mmol) for 10 min, and then illuminated with a UV lamp (365 nm) for 30 min. IAAP-labeled protein was solubilized by Laemmli SDS buffer directly (for the P-gp assay) or after immunoprecipitation (for the BCRP assay), and subjected to SDS-PAGE. Signals were visualized and analyzed with a FLA7000 system. The black arrowheads are P-gp or BCRP. […] The binding of [^125I]-IAAP with P-gp and BCRP was calculated from standard curve analysis using a FLA7000 Bioimage Analyzer (Fuji Film, Tokyo, Japan) and Multi-Gauge software (Fuji Film).

[4] = molecular target: T1, BCRP; test: Photoaffinity labeling of BCRP with [125I]-IAAP; type: binding; design: expressed in transfected cells; host or cells: K562/BCRP cells (plasma membrane vesicles); conditions: for BCRP band intensity (% of no-inhibitor): human, 10 min, pH 7.4
Protocol: as §1
as §2, with “Film). […] I copied these numbers as results for the inhibitors, although gels and blots are otherwise left out. / The value 0 under the 'K562 vesicle' control lane in panels A and B is left out because it belongs to no substance.” for “Film).”

[5] = tested on: MATE1; conditions: cited from earlier work
[6] = tested on: OCT1; conditions: cited from earlier work
[7] = molecular target: T2, P-gp; test: biochemical
Protocol: as §3
(§5) Figure 1 Effect of telaprevir on the intravesicular transport of vincristine sulfate (VCR) by P-gp. A. The ability to transport VCR in telaprevir-absent or -present conditions was determined by measuring the radioactivity taken up in membrane vesicles. B. Analyses of Lineweaver–Burk plots of inhibition of VCR uptake by P-gp. The VCR concentration was 100 nmol/L (A) and 50, 100, and 200 nmol/L (B), and of telaprevir was 0, 1, 10, and 100 μmol/L (A) and 20 μmol/L (B), respectively. Membrane vesicles from K562/MDR cells were mixed with each concentration of VCR, telaprevir, and 3 mmol/L of ATP in the incubation medium as described in the Methods section. VCR uptake is shown for parental K562 (white column for ATP-absent; gray column for ATP-present) and K562⁄MDR (dark-gray column for ATP-absent; black column for ATP-present) (A) and the inverse is shown for no inhibitor (open rhombus) and with telaprevir (black circle) (B). Results are means ± SD of triplicate (A) or quadruplicate (B) determinations.

[8] = molecular target: T1, BCRP
Protocol: as §3, §4

[9] = molecular target: T2, P-gp
Protocol: as §3, §5

[10] = tested on: OCT2; conditions: cited from earlier work
[11] = tested on: OATP1B; conditions: cited from earlier work
[12] = molecular target: T2, P-gp; design: expressed in transfected cells; host or cells: K562/MDR cells (plasma membrane vesicles); method as in PMID 23293300, PMID 22331658; conditions: cellular system; cited from earlier work
[13] = molecular target: T1, BCRP; design: expressed in transfected cells; host or cells: K562/BCRP cells (plasma membrane vesicles); method as in PMID 23293300, PMID 22331658; conditions: cellular system; cited from earlier work

T2 sequence (P08183 whole entry): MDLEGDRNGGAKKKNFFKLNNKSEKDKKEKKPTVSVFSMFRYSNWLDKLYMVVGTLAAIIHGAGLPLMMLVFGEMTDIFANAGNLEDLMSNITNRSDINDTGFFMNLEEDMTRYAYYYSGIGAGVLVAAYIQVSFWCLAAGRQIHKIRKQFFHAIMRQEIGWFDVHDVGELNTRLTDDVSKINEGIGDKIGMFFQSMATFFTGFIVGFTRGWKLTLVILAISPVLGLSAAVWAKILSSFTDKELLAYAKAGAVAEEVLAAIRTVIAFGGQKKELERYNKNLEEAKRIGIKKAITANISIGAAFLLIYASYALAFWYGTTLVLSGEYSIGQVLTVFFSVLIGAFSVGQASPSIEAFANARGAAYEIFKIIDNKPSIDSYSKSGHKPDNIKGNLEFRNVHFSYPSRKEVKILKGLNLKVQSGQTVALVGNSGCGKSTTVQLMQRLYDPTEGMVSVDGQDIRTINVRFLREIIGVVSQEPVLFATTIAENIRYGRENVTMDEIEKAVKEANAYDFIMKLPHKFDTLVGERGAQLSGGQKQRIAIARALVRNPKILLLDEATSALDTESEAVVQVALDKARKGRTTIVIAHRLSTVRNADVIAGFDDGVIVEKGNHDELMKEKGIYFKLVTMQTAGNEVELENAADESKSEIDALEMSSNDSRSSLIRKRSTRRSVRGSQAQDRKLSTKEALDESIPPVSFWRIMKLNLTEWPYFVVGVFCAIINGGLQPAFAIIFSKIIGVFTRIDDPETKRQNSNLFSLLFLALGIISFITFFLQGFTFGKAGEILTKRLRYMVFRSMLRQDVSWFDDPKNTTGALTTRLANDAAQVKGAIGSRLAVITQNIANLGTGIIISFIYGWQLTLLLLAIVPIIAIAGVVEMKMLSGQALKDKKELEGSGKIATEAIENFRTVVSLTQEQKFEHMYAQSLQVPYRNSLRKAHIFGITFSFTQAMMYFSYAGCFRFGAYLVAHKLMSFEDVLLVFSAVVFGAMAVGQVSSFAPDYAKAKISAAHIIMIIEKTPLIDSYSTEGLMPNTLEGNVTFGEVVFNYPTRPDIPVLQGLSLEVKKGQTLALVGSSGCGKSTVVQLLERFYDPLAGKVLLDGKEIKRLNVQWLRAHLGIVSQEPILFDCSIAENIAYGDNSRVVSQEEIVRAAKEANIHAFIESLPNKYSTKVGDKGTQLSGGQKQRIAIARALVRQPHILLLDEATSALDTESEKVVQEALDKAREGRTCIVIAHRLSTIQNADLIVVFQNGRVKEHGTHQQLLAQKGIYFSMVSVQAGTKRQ

IC50 ([2]; substrate E1S, K562/BCRP vesicles): 30 µM
IC50 ([2]; substrate MTX, K562/BCRP vesicles): 31 µM
IC50 ([2]; substrate not specified): ~30 µM
Ki ([2]; BCRP-mediated E1S transport): 44 µM and 44.4 µM
Ki ([2]; BCRP-mediated MTX transport): 94.8 µM
IC50 ([3]; IC50 on [125I]-IAAP binding with P-gp, K562/MDR vesicles, 5 nmol/L [125I]-IAAP): 16.5 µM
P-gp band intensity (% of no-inhibitor) ([3]; 2.5 μmol/L): 85 % of no-inhibitor
P-gp band intensity (% of no-inhibitor) ([3]; 5 μmol/L): 71 % of no-inhibitor
P-gp band intensity (% of no-inhibitor) ([3]; 10 μmol/L): 64 % of no-inhibitor
P-gp band intensity (% of no-inhibitor) ([3]; 20 μmol/L): 47 % of no-inhibitor
P-gp band intensity (% of no-inhibitor) ([3]; 40 μmol/L): 30 % of no-inhibitor
IC50 [4]: > 80 µM
BCRP band intensity (% of no-inhibitor) ([4]; 5 μmol/L): 95 % of no-inhibitor
BCRP band intensity (% of no-inhibitor) ([4]; 20 μmol/L): 72 % of no-inhibitor
BCRP band intensity (% of no-inhibitor) ([4]; 80 μmol/L): 58 % of no-inhibitor
Ki [7]: 4.8 µM
IC50 ([7]; IC50 of telaprevir on P-gp-mediated transport, substrate VCR, K562/MDR vesicles): ~7 µM and 7 µM
Inhibitory mode [8]: competitive
Inhibitory mode [9]: competitive
Vmax ([9]; human, 10 min, 20 μmol/L, pH 7.4): 7.1 pmol/mg/10 min
Structure (SMILES): CCC[C@H](NC(=O)[C@@H]1[C@H]2CCC[C@H]2CN1C(=O)[C@@H](NC(=O)[C@@H](NC(=O)c1cnccn1)C1CCCCC1)C(C)(C)C)C(=O)C(=O)NC1CC1 [telaprevir]
IC50 [1]: 2.2 µM
IC50 [5]: 23 µM
IC50 [6]: 20.7 µM
IC50 [10]: 6.4 µM
IC50 [11]: 36.8 µM

Structure (SMILES): CC(C)(C)NC(=O)N[C@H](C(=O)N1C[C@H]2[C@@H]([C@H]1C(=O)NC(CC1CCC1)C(=O)C(N)=O)C2(C)C)C(C)(C)C (stereo partly drawn) [boceprevir]
Inhibitory effect on P-gp [12]: very low
IC50 [13]: ~80 µM
